The values below come from US12552753B2, “Methods and compositions for targeting Tregs using CCR8 inhibitors” (Nanjing Immunophage Biomedical Co., Ltd., priority 2020, dated 2026).

Counter-ions that a name gives are not always drawn.

Chain of CCR8 (P51685 whole entry, the tested form may be a part): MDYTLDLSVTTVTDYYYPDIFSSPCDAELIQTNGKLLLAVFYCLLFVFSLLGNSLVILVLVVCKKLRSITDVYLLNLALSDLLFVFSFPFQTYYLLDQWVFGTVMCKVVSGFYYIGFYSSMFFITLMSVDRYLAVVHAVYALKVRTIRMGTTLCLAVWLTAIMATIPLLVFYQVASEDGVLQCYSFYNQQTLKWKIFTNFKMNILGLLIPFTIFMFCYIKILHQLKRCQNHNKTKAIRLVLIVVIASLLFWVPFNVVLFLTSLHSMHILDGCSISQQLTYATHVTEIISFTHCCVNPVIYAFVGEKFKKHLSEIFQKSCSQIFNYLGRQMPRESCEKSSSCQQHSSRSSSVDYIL

The first test concerns the target CCR8 (Homo sapiens, UniProt P51685). The experiment in a line: Tango assay (Tango-CCR8-Gal4-CHO-K1 cells, CCL1-stimulated, ONE-Glo luminescence). Particulars: Tango Assay IC50, Inhibition of CCR8 Tango cell in vitro.
A word on the IC50: it is the midpoint of a concentration-inhibition curve. Consider `Cc1ccccc1C(=O)Nc1ccc(S(=O)(=O)NC2CCC23CCN(C(=O)OC(C)(C)C)CC3)c2ccccc12` (centres unmarked) [Compound 89, tert-butyl 1-(4-(2-methylbenzamido)naph-thalene-1-sulfonamido)-7-azaspiro[3.5]nonane-7-carboxylate], for which the IC50 turned out to be 0.62 µM. As for `Cc1ccccc1C(=O)Nc1ccc(S(=O)(=O)NC(C)CN2CCC(C)CC2)c2ccccc12` (centres unmarked) [Compound 74, 2-methyl-N-(4-(N-(1-(4-methylpiperidin-1-yl)propan-2-yl)sulfamoyl)naphthalen-1-yl)benzamide], inhibition was half-maximal at 0.647 µM (IC50). Still for that read-out and setting: the same measure for `Cc1cc(S(=O)(=O)N[C@H](C)C2CCNCC2)c(Cl)cc1NC(=O)c1ccccc1C` [Compound 169A, (R)-N-(5-chloro-2-methyl-4-(N-(1-(piperidin-4-yl)ethyl)sulfamoyl)phen-yl)-2-methylbenzamide hydrochloride]: 0.012 µM; for `Cc1cc(S(=O)(=O)N[C@H](C)C2CCNCC2)ccc1NC1(c2ccccc2)COC1` [Compound 313, (R)-3-methyl-4-((3-phenyloxetan-3-yl)amino)-N-(1-(piperidin-4-yl)ethyl)benzene-sulfonamide]: 0.224 µM. Still for that read-out and setting: with `CCCC(=O)N1CCC(NS(=O)(=O)c2ccc(-c3nc4ccccc4[nH]3)c3ccccc23)CC1` [Compound 107, 4-(1H-benzo[d]imidazol-2-yl)-N-(1-butyrylpiperidin-4-yl)naphthalene-1-sulfonamide] the figure was 0.913 µM; with `Cc1cc(S(=O)(=O)NC(C(C)C)C2CCNCC2)ccc1NC(=O)c1ccccc1C` (centres unmarked) [Compound 224A, 2-methyl-N-(2-methyl-4-(N-(2-methyl-1-(piperidin-4-yl)propyl)sulfamoyl)phenyl)benzamide hydrochloride], 0.494 µM. `Cc1c(C(=O)O)cccc1S(=O)(=O)NC(C)C1CC2CCC1CC2` (centres unmarked) [Compound 142, 3-(N-(1-(bicyclo[2.2.2]octan-2-yl)ethyl)sulfamoyl)-2-methylbenzoic acid] returned an IC50 of more than 10 µM. For the compound `Cc1cc(S(=O)(=O)N[C@H](C)C2CCNCC2)ccc1NC(=O)c1ccc(F)cc1C` [Compound 258A, (R)-4-fluoro-2-methyl-N-(2-methyl-4-(N-(1-(piperidin-4-yl)ethyl)sulfamoyl)phenyl)benzamide hydrochloride], the IC50 is more than 100 µM. In turn, `Cc1ccccc1C(=O)Nc1cc(F)c(S(=O)(=O)N[C@H](C)C2CCNCC2)cc1Cl` [Compound 242A, (R)-N-(2-chloro-5-fluoro-4-(N-(1-(piperidin-4-yl)eth-yl)sulfamoyl)phen-yl)-2-methylbenzamide hydrochloride] displayed an IC50 of 0.015 µM. `CC(NS(=O)(=O)c1ccc(F)c(C(=O)O)c1)C1CCCCC1` (centres unmarked) [Compound 141, 5-(N-(1-cyclohexylethyl)sul-famoyl)-2-fluorobenzoic acid] had an IC50 of more than 10 µM.

On to `CC(NS(=O)(=O)c1ccc2cnccc2c1)C1CC2CCC1CC2` (centres unmarked) [Compound 139, N-(1-(bicyclo[2.2.2]octan-2-yl)ethyl)isoquinoline-6-sulfonamide], for which the IC50 was more than 10 µM.

`Cc1ccccc1NC(=O)c1ccc(S(=O)(=O)N[C@H](C)C2CCN(C)CC2)cc1C` [Compound 222, (R)-2-methyl-4-(N-(1-(1-methylpiperidin-4-yl)ethyl)sulfamoyl)-N-(o-tolyl)benzamide] registered an IC50 of 0.366 µM. Turning to `Cc1ccccc1C(=O)Nc1ccc(S(=O)(=O)NC(C)C=C2CCCCC2)c2ccccc12` (centres unmarked) [Compound 130, N-(4-(N-(1-cyclohexylidene-propan-2-yl)sulfamoyl)naphtha-len-1-yl)-2-methylbenzamide], the IC50 is 0.01 µM. Take `Cc1ccccc1C(=O)Nc1ccc(S(=O)(=O)NC(C)C2CC3CCC2CC3)c(C)c1` (centres unmarked) [Compound 163, N-(4-(N-(1-(bicyclo[2.2.2]octan-2-yl)ethyl)sulfamoyl)-3-methylphenyl)-2-methylbenzamide]: it took 0.086 µM to reach half-maximal inhibition (IC50). `Cc1cc(S(=O)(=O)N[C@H](C)C2C[C@@H]3CCC2N3)ccc1NC(=O)c1ccccc1C` (stereo partly drawn) [Compound 228A, N-(4-(N-(1-(exo-7-azabicyclo[2.2.1]heptan-2-yl)ethyl)sulfamoyl)-2-methylphenyl)-2-methylbenzamide hydrochloride] had an IC50 of more than 100 µM.

For `Cc1ccccc1C(=O)Nc1cc(F)c(S(=O)(=O)N[C@H](C)C2CCN(C)CC2)cc1Cl` [Compound 263, (R)-N-(2-chloro-5-fluoro-4-(N-(1-(1-methylpiperidin-4-yl)ethyl)sulfamoyl)phenyl)-2-methylbenzamide], 0.002 µM corresponded to half-maximal inhibition (IC50). Still for that read-out and setting: with `Cc1ccccc1C(=O)Nc1ccc(S(=O)(=O)NC(C)C2CCCN(C(=O)CN(C)C)C2)c2ccccc12` (centres unmarked) [Compound 159, N-(4-(N-(1-(1-(2-(dimethylamino)acetyl)piperidin-3-yl)ethyl)sulfamoyl)naph-thalen-1-yl)-2-methylbenzamide] the figure was more than 10 µM; with `Cc1ccccc1C(=O)Nc1ccc(S(=O)(=O)N[C@H](C)C2CCNCC2)c(Cl)c1C` [Compound 179A, (R)-N-(3-chloro-2-methyl-4-(N-(1-(piperidin-4-yl)eth-yl)sulfamoyl)phen-yl)-2-methylbenzamide, hydrochloride], 0.158 µM; with `CCCC(=O)N1CCC(NS(=O)(=O)c2ccc(N3C(=O)c4ccccc4C3=O)cc2)CC1` [Compound 118, N-(1-butyrylpiperidin-4-yl)-4-(1,3-dioxoisoindolin-2-yl)benzenesulfonamide], more than 10 µM. The compound `Cc1ccccc1C(=O)Nc1ccc(S(=O)(=O)NC(C)C2CCCN(C(=O)OC(C)(C)C)C2)c2ccccc12` (centres unmarked) [Compound 24, tert-butyl 3-(1-(4-(2-methylbenzamido)naph-thalene-1-sulfonamido)ethyl)piper-idine-1-carboxylate] displayed an IC50 of 0.93 µM. `CC(=O)N1CCC(NS(=O)(=O)c2ccc(NC(=O)c3ccccc3C)c3ccccc23)c2ccccc21` (centres unmarked) [Compound 31, N-(4-(N-(1-acetyl-1,2,3,4-tetrahydroquinolin-4-yl)sulfamoyl)naphthalen-1-yl)-2-methylbenzamide] displayed an IC50 of 1.08 µM. Same read-out and setting: with `Cc1ccccc1C(=O)Nc1ccc(S(=O)(=O)N[C@H](C)C2CCNCC2)cc1C(C)C` [Compound 197A, (R)-N-(2-isopropyl-4-(N-(1-(piperidin-4-yl)ethyl)sulfamoyl)phenyl)-2-methylbenzamide hydrochloride] the figure was 0.115 µM; with `CCCN1CCN(c2cc(NS(=O)(=O)c3ccc(NC(=O)c4ccccc4C)c4ccccc34)ccc2C(=O)O)CC1` [Compound 91, 4-(4-(2-methylbenzamido)naph-thalene-1-sulfonamido)-2-(4-propylpiperazin-1-yl)benzoic acid], more than 10 µM; with `Cc1cc(S(=O)(=O)N[C@H](C)C2CCNCC2)c(C)cc1NC(=O)c1ccccc1C` [Compound 171A, (R)-N-(2,5-dimethyl-4-(N-(1-(piperidin-4-yl)ethyl)sulfamoyl)phen-yl)-2-methylbenzamide hydrochloride], 0.019 µM. Same read-out and setting: the same measure for `CCCC(=O)N1CCCC(CNS(=O)(=O)c2ccc(NC(=O)c3ccccc3C)c3ccccc23)C1` (centres unmarked) [Compound 14, N-(4-(N-((1-butyrylpiperidine-3-yl)methyl)sulfamoyl)naphthalen-1-yl)-2-methylbenzamide]: more than 10 µM; for `Cc1ccccc1C(=O)Nc1cc(F)c(S(=O)(=O)NC(C)C2CCN(C)CC2)cc1Cl` (centres unmarked) [Compound 263C, N-(2-chloro-5-fluoro-4-(N-(1-(1-methylpiperidin-4-yl)ethyl)sulfamoyl)phenyl)-2-methylbenzamide]: 0.015 µM; for `Cc1ccccc1C(=O)Nc1ccc(S(=O)(=O)NC2CCOc3ccccc32)cc1` (centres unmarked) [Compound 53, N-(4-(N-(chroman-4-yl)sulfamoyl)phenyl)-2-methylbenzamide]: more than 10 µM. Same read-out and setting: with `Cc1ccccc1C(=O)Nc1ccc(S(=O)(=O)N[C@H](C)C2CCNCC2)cc1C(F)(F)F` [Compound 186A, (R)-2-methyl-N-(4-(N-(1-(piperidin-4-yl)ethyl)sulfamoyl)-2-(trifluoromethyl)phenyl) benzamide hydrochloride] the figure was 0.182 µM. As to `COC(=O)CN1CCCCC1C(C)NS(=O)(=O)c1ccc(NC(=O)c2ccccc2C)c2ccccc12` (single isomer, unassigned) [Compound 70A, methyl 2-(2-(1-(4-(2-methylbenzamido)naph-thalene-1-sulfonamido)ethyl)piper-idin-1-yl)acetate], the IC50 stood at 0.116 µM. For the compound `Cc1ccccc1C(=O)Nc1ccc(S(=O)(=O)NC(C)CC2CCN(C)CC2)c2ccccc12` (centres unmarked) [Compound 214, 2-methyl-N-(4-(N-(1-(1-methylpiperidin-4-yl)propan-2-yl)sulfamoyl)naphthalen-1-yl)benzamide], the IC50 was more than 10 µM. For the compound `Cc1cc(S(=O)(=O)N[C@H](C)C2CCN(C(=O)OC(C)(C)C)CC2)ccc1NC(=O)c1ccccc1C` [Compound 160, (R)-tert-butyl 4-(1-(3-methyl-4-(2-methylbenzamido)phen-ylsulfonamido)ethyl)piper-idine-1-carboxylate], the IC50 is more than 10 µM. Turning to `COC(=O)[C@H](NS(=O)(=O)c1ccc(NC(=O)c2ccccc2C)c2ccccc12)C1CCCCC1` [Compound 50, (R)-methyl 2-cyclohexyl-2-(4-(2-methylbenzamido)naph-thalene-1-sulfonamido)acetate], the IC50 was 0.012 µM. On to `Cc1cc(S(=O)(=O)N[C@H](C)C2CCNCC2)ccc1NC(=O)C1CCOCC1` [Compound 212A, (R)-N-(2-methyl-4-(N-(1-(piperidin-4-yl)ethyl)sulfamoyl)phenyl)tetrahydro-2H-pyran-4-carboxamide hydrochloride], for which 2.5 µM corresponded to half-maximal inhibition (IC50).

The same test, now with this note: read-out: Tango Assay IC50, Inhibition of CCR8 Tango cell in vitro.
Turning to `Cc1ccccc1C(=O)Nc1ccc(S(=O)(=O)NC(C)C2CCCCN2)c2ccccc12` (centres unmarked) [Compound 69B, 2-methyl-N-(4-(N-(1-(piperidin-2-yl)ethyl)sulfamoyl)naph-thalen-1-yl)benzamide], the IC50 was more than 10 µM. Same read-out and setting: with `Cc1ccccc1C(=O)Nc1c(C)cc(S(=O)(=O)N[C@H](C)C2CCN(C)CC2)cc1Cl` [Compound 220, (R)-N-(2-chloro-6-methyl-4-(N-(1-(1-methylpiperidin-4-yl)ethyl)sulfamoyl)phenyl)-2-methylbenzamide] the figure was 0.001 µM.
